Laboratory results reported in patent US20220213047A1, “CARBONIC ANHYDRASE INHIBITORS FOR TREATMENT OF NEISSERIA GONORRHOEAE INFECTION” (Purdue Research Foundation, priority 2021, published 2022).
Converted amounts (≈) assume the structure as drawn.

Legend:
N. gonorrhoeae [1] = assay: MIC against N. gonorrhoeae clinical isolates, normal and CO2 conditions; format: cell-based; details: Neisseria gonorrhoeae
Protocol: (§1) These tests were performed in normal culture conditions with standard CO2 levels and in CO2 (5% in incubator) conditions.

N. gonorrhoeae [2] = assay: Post-antibiotic effect (PAE); format: cell-based; details: after exposure to 10×MIC for 1 hour
ATCC strain 700825 = assay: MICs against ATCC strain 700825; format: cell-based, N. gonorrhoeae; details: Neisseria gonorrhoeae
Protocol: as §1

[3] = N. gonorrhoeae 178, Non CO2 environment
[4] = N. gonorrhoeae 178, normal growth environment (with CO2)
[5] = N. gonorrhoeae 181, Non CO2 environment
[6] = N. gonorrhoeae 181, normal growth environment (with CO2)
[7] = N. gonorrhoeae 194, Non CO2 environment
[8] = N. gonorrhoeae 194, normal growth environment (with CO2)

Structure (SMILES)	MIC (N. gonorrhoeae [1]; [3])	MIC (N. gonorrhoeae [1]; [4])	MIC (N. gonorrhoeae [1]; [5])	MIC (N. gonorrhoeae [1]; [6])	MIC (N. gonorrhoeae [1]; [7])	MIC (N. gonorrhoeae [1]; [8])	PAE (N. gonorrhoeae [2]; Ng 181)	PAE (N. gonorrhoeae [2]; Ng 186)	PAE (N. gonorrhoeae [2]; Ng 194)	PAE (N. gonorrhoeae [2]; Ng 198)	PAE (N. gonorrhoeae [2]; clinical isolates of N. gonorrhoeae)	MIC (ATCC strain 700825; ATCC700825, In CO2)	MIC (ATCC strain 700825; ATCC700825, In air)
CC[C@H]1OC(=O)[C@H](C)[C@@H](O[C@H]2C[C@@](C)(OC)[C@@H](O)[C@H](C)O2)[C@H](C)[C@@H](O[C@@H]2O[C@H](C)C[C@H](N(C)C)[C@H]2O)[C@](C)(O)C[C@@H](C)CN(C)[C@H](C)[C@@H](O)[C@]1(C)O [Azithromycin]	0.25 µg/mL (≈ 0.334 µM)	1 µg/mL (≈ 1.34 µM)	> 128 µg/mL	> 128 µg/mL	0.25 µg/mL (≈ 0.334 µM)	0.5 µg/mL (≈ 0.668 µM)	8 h	8 h	8 h	8 h	8 h		
CCN[C@H]1CN(CCCOC)S(=O)(=O)c2sc(S(N)(=O)=O)cc21 [Brinzolamide]	> 64 µg/mL	> 64 µg/mL	> 64 µg/mL	> 64 µg/mL	> 64 µg/mL	> 64 µg/mL							
CCC(=O)Nc1nnc(S(N)(=O)=O)s1 [CAI 009]	8 µg/mL (≈ 33.9 µM)	16 µg/mL (≈ 67.7 µM)	8 µg/mL (≈ 33.9 µM)	> 64 µg/mL	16 µg/mL (≈ 67.7 µM)	64 µg/mL (≈ 271 µM)							
CC(C)(C)C(=O)Nc1nnc(S(N)(=O)=O)s1 [CAI 0010]	32 µg/mL (≈ 121 µM)	32 µg/mL (≈ 121 µM)	32 µg/mL (≈ 121 µM)	> 64 µg/mL	32 µg/mL (≈ 121 µM)	64 µg/mL (≈ 242 µM)							
CC(C)C(=O)Nc1nnc(S(N)(=O)=O)s1 [CAI 0011]	16 µg/mL (≈ 63.9 µM)	32 µg/mL (≈ 128 µM)	16 µg/mL (≈ 63.9 µM)	> 64 µg/mL	8 µg/mL (≈ 32 µM)	64 µg/mL (≈ 256 µM)							
NS(=O)(=O)c1nnc(NC(=O)c2ccccc2)s1 [CAI 0012]	2 µg/mL (≈ 7.03 µM)	16 µg/mL (≈ 56.3 µM)	4 µg/mL (≈ 14.1 µM)	> 64 µg/mL	2 µg/mL (≈ 7.03 µM)	64 µg/mL (≈ 225 µM)							
CCCC(=O)Nc1nnc(S(N)(=O)=O)s1 [CAI 0013]		8 µg/mL (≈ 32 µM)	8 µg/mL (≈ 32 µM)	32 µg/mL (≈ 128 µM)	4 µg/mL (≈ 16 µM)	8 µg/mL (≈ 32 µM)							
NS(=O)(=O)c1nnc(NC(=O)CCC2CCCC2)s1 [CAI 0015]	2 µg/mL (≈ 6.57 µM)	16 µg/mL (≈ 52.6 µM)	1 µg/mL (≈ 3.29 µM)	> 64 µg/mL	4 µg/mL (≈ 13.1 µM)	64 µg/mL (≈ 210 µM)							
CC(C)=CC(=O)Nc1nnc(S(N)(=O)=O)s1 [CAI 0016]	16 µg/mL (≈ 61 µM)	64 µg/mL (≈ 244 µM)	16 µg/mL (≈ 61 µM)	32 µg/mL (≈ 122 µM)	32 µg/mL (≈ 122 µM)	64 µg/mL (≈ 244 µM)							
NS(=O)(=O)c1nnc(NC(=O)C2CCC2)s1 [CAI 0018]	16 µg/mL (≈ 61 µM)	64 µg/mL (≈ 244 µM)	16 µg/mL (≈ 61 µM)	> 64 µg/mL	8 µg/mL (≈ 30.5 µM)	32 µg/mL (≈ 122 µM)							
NS(=O)(=O)c1nnc(NC(=O)CCC2CCCCC2)s1 [CAI 0019]	4 µg/mL (≈ 12.6 µM)	64 µg/mL (≈ 201 µM)	1 µg/mL (≈ 3.14 µM)	64 µg/mL (≈ 201 µM)	2 µg/mL (≈ 6.28 µM)	> 64 µg/mL						32 µg/mL (≈ 100 µM)	4 µg/mL (≈ 12.6 µM)
NS(=O)(=O)c1nnc(NC(=O)C2CC2)s1 [CAI 0020]	2 µg/mL (≈ 8.06 µM)	64 µg/mL (≈ 258 µM)	2 µg/mL (≈ 8.06 µM)	64 µg/mL (≈ 258 µM)	4 µg/mL (≈ 16.1 µM)	> 64 µg/mL							
NS(=O)(=O)c1nnc(NC(=O)CC2CCCC2)s1 [CAI 0021]	2 µg/mL (≈ 6.89 µM)	64 µg/mL (≈ 220 µM)	1 µg/mL (≈ 3.44 µM)	> 64 µg/mL	4 µg/mL (≈ 13.8 µM)	> 64 µg/mL							
NS(=O)(=O)c1nnc(NC(=O)C2CCCCC2)s1 [CAI 0022]	4 µg/mL (≈ 13.8 µM)	32 µg/mL (≈ 110 µM)	2 µg/mL (≈ 6.89 µM)	64 µg/mL (≈ 220 µM)	4 µg/mL (≈ 13.8 µM)	> 64 µg/mL							
NS(=O)(=O)c1nnc(NC(=O)C2CCCC2)s1 [CAI 0023]	8 µg/mL (≈ 28.9 µM)	32 µg/mL (≈ 116 µM)	8 µg/mL (≈ 28.9 µM)	64 µg/mL (≈ 232 µM)	8 µg/mL (≈ 28.9 µM)	64 µg/mL (≈ 232 µM)							
CC(C)CC(=O)Nc1nnc(S(N)(=O)=O)s1 [CAI 0026]	8 µg/mL (≈ 30.3 µM)	32 µg/mL (≈ 121 µM)	8 µg/mL (≈ 30.3 µM)	> 64 µg/mL	4 µg/mL (≈ 15.1 µM)	> 64 µg/mL							
